In patent US20220137060A1, “FULL LENGTH KINASE ACTIVITY-CONFORMATION REPORTER” (UNIVERSITAT INNSBRUCK, priority 2016, published 2022):
Entries after “also recorded” stand apart in the source; their conditions may differ.

Legend:
Format in all cases: cell-based
wild type BRAF [1] = biological target: T1, wild type BRAF (Homo sapiens, UniProt P15056); assay: Intramolecular Rluc PCA reporter F[1]-BRAF-F[2] (wild type), transiently transfected HEK293 cells; set-up: Renilla luciferase PCA fragment F[1]; Renilla luciferase PCA fragment F[2]; expressed in transfected cells; host or cells: HEK293 (transient, pcDNA3.1); details: for Effect on reporter luminescence signal: HEK293, 1 μM, 3 h treatments (FIG. 5A, 6A)
Method: (§1) Cell culture and antibodies. HEK293 and SW480 cells were grown in DMEM supplemented with 10% (vol/vol) FBS. Cells were passaged three times a week to keep the cells in culture. Transient transfections were performed with Transfectin reagent (Bio-Rad, #1703350). […] The primary antibody used was anti-BRAF(F-7) (Santa Cruiz Biotechnology, #sc-5284).
(§2) Expression constructs. The Rluc PCA hybrid proteins F[1]-BRAF-F[2] and F[1]-BRAF(V600E)-F[2] have been generated using the identical cloning approach. Following PCR amplification of the human BRAF or BRAF(V600E) gene, the coding region of the BRAF protein (SEQ ID No: 2 or 5) was fused N-terminally with F[1] (SEQ ID No: 13) and C-terminally with F[2] (SEQ ID No: 17) of the Rluc PCA coding region. In addition. the sequence of two interjacent 10-aa linkers (GGGGS)2 (SEQ ID No: 18) was integrated by cloning. As vector backbone we used the pcDNA3.1 plasmid. The MEK1 expression constructs (s. SEQ ID No: 23) and the Gluc PCA based BRAF reporter (s. SEQ ID No: 24) were prepared analogously.
(§3) Renilla/Gaussia luciferase PCA experiments. Cells were grown in DMEM supplemented with 10% FBS. Indicated versions of the Rluc PCA based biosensor were transiently overexpressed in 24-well plate format. 48 hours post-transfection, the growth medium was partially removed and different compounds added with concentrations as indicated in the figure legends. To measure the dose-dependent effect of the lead molecules (candidate compounds) on the intramolecular Rluc PCA reporter, the attached cells were treated with different concentrations and for different time-frames. The time-dependent consequences of the lead compounds on kinase conformations were recorded with a final compound concentration of 1 μM. For the Rluc PCA measurements the growth medium was carefully removed and the cells were washed with PBS. Cells were resuspended in PBS and the cell suspensions were transferred to 96-well plates and subjected to luminescence analysis using the LMaxTM-II-384 luminometer (Molecular Devices). Rluc luminescence signals were integrated for 10 seconds with a delay time of 3 seconds following addition of 20 μl of the Rluc substrate benzyl-coelenterazine (5 μM; Nanolight, #301) in PBS with a concentration of 25 nM. Dose-dependent effects of drug exposure on luminescence signals originating from BRAF conformations were compared using indicated controls. Cells were collected after PCA measurements and lysed with Laemmli sample buffer to control the protein expression levels. In case of Gluc reporters, coelenterazine was used as luminescence substrate.
Target sequence in this assay (P15056 with tags, fused parts or gaps): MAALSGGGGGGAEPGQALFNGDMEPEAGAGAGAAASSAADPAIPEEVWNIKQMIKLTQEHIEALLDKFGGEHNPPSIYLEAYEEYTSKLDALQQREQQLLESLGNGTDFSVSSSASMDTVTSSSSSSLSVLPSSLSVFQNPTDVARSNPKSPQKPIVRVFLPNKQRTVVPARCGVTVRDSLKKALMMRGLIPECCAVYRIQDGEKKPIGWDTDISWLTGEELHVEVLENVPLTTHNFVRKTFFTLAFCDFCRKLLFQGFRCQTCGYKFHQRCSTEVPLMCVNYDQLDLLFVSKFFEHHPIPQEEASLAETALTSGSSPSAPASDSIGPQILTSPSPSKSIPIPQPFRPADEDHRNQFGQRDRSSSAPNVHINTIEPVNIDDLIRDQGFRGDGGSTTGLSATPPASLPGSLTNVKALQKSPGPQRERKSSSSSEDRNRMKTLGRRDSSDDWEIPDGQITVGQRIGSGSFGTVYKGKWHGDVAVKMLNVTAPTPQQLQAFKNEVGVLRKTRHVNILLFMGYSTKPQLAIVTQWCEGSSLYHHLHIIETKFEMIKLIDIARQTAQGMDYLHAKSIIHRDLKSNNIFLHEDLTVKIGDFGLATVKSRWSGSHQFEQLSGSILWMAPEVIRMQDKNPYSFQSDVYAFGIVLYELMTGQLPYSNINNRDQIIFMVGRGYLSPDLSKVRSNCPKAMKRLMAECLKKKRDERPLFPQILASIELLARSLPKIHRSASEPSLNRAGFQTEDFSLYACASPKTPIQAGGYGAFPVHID

BRAF V600R = BRAF V600R (Homo sapiens, UniProt P15056, V600R); assay: Intramolecular Rluc PCA mutant BRAF reporter (V600R), transiently transfected HEK293 cells; details: HEK293, 1 μM, 3 h treatments (FIG. 5B)
Method: as §1
(§4) Expression constructs. The Rluc PCA hybrid proteins F[1]-BRAF-F[2] and F[1]-BRAF(V600E)-F[2] have been generated using the identical cloning approach. Following PCR amplification of the human BRAF or BRAF(V600E) gene, the coding region of the BRAF protein (SEQ ID No: 2 or 5) was fused N-terminally with F[1] (SEQ ID No: 13) and C-terminally with F[2] (SEQ ID No: 17) of the Rluc PCA coding region. […]
(§5) Renilla/Gaussia luciferase PCA experiments. […] The time-dependent consequences of the lead compounds on kinase conformations were recorded with a final compound concentration of 1 μM. […] Cells were resuspended in PBS and the cell suspensions were transferred to 96-well plates and subjected to luminescence analysis using the LMaxTM-II-384 luminometer (Molecular Devices). Rluc luminescence signals were integrated for 10 seconds with a delay time of 3 seconds following addition of 20 μl of the Rluc substrate benzyl-coelenterazine (5 μM; Nanolight, #301) in PBS with a concentration of 25 nM. […] In case of Gluc reporters, coelenterazine was used as luminescence substrate.

BRAF V600K = BRAF V600K (Homo sapiens, UniProt P15056, V600K); assay: Intramolecular Rluc PCA mutant BRAF reporter (V600K), transiently transfected HEK293 cells; details: HEK293, 1 μM, 3 h treatments (FIG. 5B)
Method: as §1, §4, §5

BRAF-V600E [2] = biological target: T2, BRAF-V600E (Homo sapiens, UniProt P15056, V600E); assay: Intramolecular Gluc PCA reporter GlucF[1]-BRAF-V600E-GlucF[2], transiently transfected HEK293 cells; details: HEK293, 1 μM, 3 h treatments (FIG. 8)
T2 construct: Renilla luciferase PCA fragment F[1]; Renilla luciferase PCA fragment F[2]; expressed in transfected cells; host or cells: HEK293 (transient, pcDNA3.1)
Method: as §1, §4, §5

BRAF D594G = BRAF D594G (Homo sapiens, UniProt P15056, D594G); assay: Intramolecular Rluc PCA mutant BRAF reporter (D594G), transiently transfected HEK293 cells; details: HEK293, 1 μM, 3 h treatments (FIG. 5B)
Method: as §1, §4, §5

BRAF-V600E [3] = biological target: T2, BRAF-V600E; assay: Intramolecular Rluc PCA reporter F[1]-BRAF(V600E)-F[2], transiently transfected HEK293 cells; details: HEK293, 1 μM; for Effect on reporter bioluminescence signal / conformation: BRAF V600E reporter, 3 h treatments (FIG. 5B, 6B)
Method: as §1, §2
Mutagenesis. Site directed mutagenesis have been performed to generate following mutations in the reporter constructs: V600E, V600K, V600R, D594G, and G469A in BRAF and S218A and the S218E/S222E double mutation in MEK1.
as §3

wild type BRAF [4] = biological target: T1, wild type BRAF; assay: Intramolecular Gluc PCA reporter GlucF[1]-BRAF-GlucF[2] (wild type), transiently transfected HEK293 cells; details: HEK293, 1 μM, 3 h treatments (FIG. 8)
Method: as §1, §4, §5
Target sequence in this assay (P15056 with tags, fused parts or gaps): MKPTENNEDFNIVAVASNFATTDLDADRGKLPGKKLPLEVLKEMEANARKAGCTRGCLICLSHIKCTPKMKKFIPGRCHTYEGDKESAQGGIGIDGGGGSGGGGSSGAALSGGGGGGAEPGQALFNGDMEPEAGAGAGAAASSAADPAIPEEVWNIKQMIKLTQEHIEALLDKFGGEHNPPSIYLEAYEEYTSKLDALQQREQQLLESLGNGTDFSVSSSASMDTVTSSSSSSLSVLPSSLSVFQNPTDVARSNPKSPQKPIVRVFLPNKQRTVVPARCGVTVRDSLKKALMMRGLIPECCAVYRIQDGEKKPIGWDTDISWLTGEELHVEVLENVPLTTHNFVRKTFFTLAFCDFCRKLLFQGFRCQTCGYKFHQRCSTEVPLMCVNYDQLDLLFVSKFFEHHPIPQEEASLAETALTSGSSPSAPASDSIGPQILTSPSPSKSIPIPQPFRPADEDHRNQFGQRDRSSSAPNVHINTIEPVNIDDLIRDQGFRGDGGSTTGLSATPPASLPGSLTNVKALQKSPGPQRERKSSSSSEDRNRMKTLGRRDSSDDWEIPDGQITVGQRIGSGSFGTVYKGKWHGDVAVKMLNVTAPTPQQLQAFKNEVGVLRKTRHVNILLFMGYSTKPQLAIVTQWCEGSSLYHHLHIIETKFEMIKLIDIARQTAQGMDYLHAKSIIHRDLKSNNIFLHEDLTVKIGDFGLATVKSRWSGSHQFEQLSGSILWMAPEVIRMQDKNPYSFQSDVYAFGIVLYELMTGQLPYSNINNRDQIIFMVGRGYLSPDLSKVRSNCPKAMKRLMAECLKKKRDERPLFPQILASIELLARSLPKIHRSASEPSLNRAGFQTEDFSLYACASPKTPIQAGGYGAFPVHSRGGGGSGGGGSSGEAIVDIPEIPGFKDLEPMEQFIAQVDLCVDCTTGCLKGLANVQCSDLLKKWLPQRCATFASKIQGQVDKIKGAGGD

BRAF G469A = BRAF G469A (Homo sapiens, UniProt P15056, G469A); assay: Intramolecular Rluc PCA mutant BRAF reporter (G469A), transiently transfected HEK293 cells; details: HEK293, 1 μM, 3 h treatments (FIG. 5B)
Method: as §1, §4, §5

T2 sequence (P15056 with tags, fused parts or gaps V600E): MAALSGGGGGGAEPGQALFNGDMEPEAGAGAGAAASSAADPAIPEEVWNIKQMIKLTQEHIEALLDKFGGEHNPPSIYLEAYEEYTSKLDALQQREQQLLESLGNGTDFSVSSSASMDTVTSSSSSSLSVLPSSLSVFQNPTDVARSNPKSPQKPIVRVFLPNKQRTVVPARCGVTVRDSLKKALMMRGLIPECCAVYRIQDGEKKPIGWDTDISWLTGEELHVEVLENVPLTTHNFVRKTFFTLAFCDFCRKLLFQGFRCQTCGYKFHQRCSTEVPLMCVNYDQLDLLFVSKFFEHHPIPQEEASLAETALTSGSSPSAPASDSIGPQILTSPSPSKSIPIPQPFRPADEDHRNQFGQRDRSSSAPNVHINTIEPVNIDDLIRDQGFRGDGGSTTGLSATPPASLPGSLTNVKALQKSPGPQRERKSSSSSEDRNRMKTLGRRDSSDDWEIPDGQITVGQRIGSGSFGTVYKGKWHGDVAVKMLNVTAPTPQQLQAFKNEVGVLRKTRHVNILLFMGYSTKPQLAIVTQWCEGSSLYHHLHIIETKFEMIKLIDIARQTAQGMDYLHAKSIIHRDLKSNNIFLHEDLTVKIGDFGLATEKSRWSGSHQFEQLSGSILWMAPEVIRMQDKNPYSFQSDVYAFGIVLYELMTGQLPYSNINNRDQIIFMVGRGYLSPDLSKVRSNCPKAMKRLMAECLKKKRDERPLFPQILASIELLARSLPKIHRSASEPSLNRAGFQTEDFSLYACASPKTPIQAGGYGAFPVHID
BRAF V600K, sequence (P15056 with tags, fused parts or gaps V600K): as the sequence (P15056 with tags, fused parts or gaps V600E) above, with E600K counted along it
BRAF G469A, sequence (P15056 with tags, fused parts or gaps G469A): as the sequence (P15056 with tags, fused parts or gaps V600E) above, with G469A, E600V counted along it
BRAF D594G, sequence (P15056 with tags, fused parts or gaps D594G): as the sequence (P15056 with tags, fused parts or gaps V600E) above, with D594G, E600V counted along it
BRAF V600R, sequence (P15056 with tags, fused parts or gaps V600R): as the sequence (P15056 with tags, fused parts or gaps V600E) above, with E600R counted along it

Row | Time-dependent effect on reporter conformation (Rluc PCA signal) (wild type BRAF [1]; HEK293, 1 μM (FIG. 4)) | Effect on Gluc PCA luciferase signal / conformation (wild type BRAF [4]) | Compound | Effect on reporter luminescence signal (wild type BRAF [1]) | Effect on reporter bioluminescence signal / conformation (BRAF V600R) | Effect on reporter bioluminescence signal / conformation (BRAF V600K) | Effect on Gluc PCA luciferase signal / conformation (BRAF-V600E [2]) | Effect on reporter bioluminescence signal / conformation (BRAF D594G) | Effect on reporter bioluminescence signal / conformation (BRAF-V600E [3]) | Time-dependent effect on reporter conformation (Rluc PCA signal) (BRAF-V600E [3]; BRAF-V600E reporter, up to 3 h (FIG. 4)) | Effect on reporter bioluminescence signal / conformation (BRAF G469A)
1 | not affected | not affected | O=C(c1c(F)ccc(NS(=O)(=O)N2CC[C@@H](F)C2)c1F)c1c[nH]c2ncc(-c3cnc(C4CC4)nc3)cc12 [PLX8394] | not susceptible; also recorded: only slight changes in the luminescence signal | significant shift to the closed conformation | significant shift to the closed conformation | enhanced the luciferase signal exclusively with the V600E BRAF mutant | significant shift to the closed conformation | significant shift to the closed conformation | immediate shift of the BRAF-V600E reporter to the closed conformation was observed increasing up to 3 h | significant shift to the closed conformation
2 | – | – | N#CC(=C(/N)Sc1ccccc1N)/C(C#N)=C(\N)Sc1ccccc1N [U0126] | only slight changes in the luminescence signal | – | – | – | – | exclusively influenced by the BRAF specific inhibitors | – | –
3 | – | – | CC(C)(C)c1nc(-c2cccc(NS(=O)(=O)c3c(F)cccc3F)c2F)c(-c2ccnc(N)n2)s1 [dabrafenib] | only slight changes in the luminescence signal | – | – | – | – | shift to the closed conformation | – | –
4 | – | – | COC(=O)N[C@@H](C)CNc1nccc(-c2cn(C(C)C)nc2-c2cc(Cl)cc(NS(C)(=O)=O)c2F)n1 [encorafenib] | only slight changes in the luminescence signal | – | – | – | – | shift to the closed conformation | – | –
5 | – | – | COc1cc(F)c(F)c(Nc2ccc(I)cc2F)c1NS(=O)(=O)C1(C[C@H](O)CO)CC1 [refametinib] | only slight changes in the luminescence signal | – | – | – | – | exclusively influenced by the BRAF specific inhibitors | – | –
